Measured values published in patent publication US20080125469A1, “Thiadiazole compounds and methods of use thereof” (Wyeth, priority 2006, published 2008).

Each compound was assayed against T1, purified recombinant human Aggrecanase-2 (Agg2-Phe628) (Homo sapiens, UniProt Q9UNA0) (assay: Aggrecanase 2 continuous in vitro fluorescence assay). Details: Agg2-Phe628 0.5 μg/ml, substrate 25 μM, 30° C.; read-out: IC50.
T1 construct: (Agg2-Phe628) (MW=41,737), which is a truncated form of full-length human aggrecanase-2; made in house; host or cells: CHO cells
T1 sequence (Q9UNA0 262-628 limits assumed): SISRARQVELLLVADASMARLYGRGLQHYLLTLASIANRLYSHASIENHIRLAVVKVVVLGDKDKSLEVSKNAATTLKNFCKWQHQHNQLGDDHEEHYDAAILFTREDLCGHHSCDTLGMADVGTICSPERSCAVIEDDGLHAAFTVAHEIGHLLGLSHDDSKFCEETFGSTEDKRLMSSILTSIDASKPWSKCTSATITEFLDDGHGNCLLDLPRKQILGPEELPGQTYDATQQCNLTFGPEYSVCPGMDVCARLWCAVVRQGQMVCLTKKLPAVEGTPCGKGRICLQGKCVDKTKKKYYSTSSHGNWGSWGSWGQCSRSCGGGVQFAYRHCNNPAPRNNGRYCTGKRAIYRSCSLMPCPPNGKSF
Format: biochemical
Protocol: A continuous vitro fluorescence assay was employed, wherein the enzyme used in the assay was a purified recombinant human Aggrecanase-2 (Agg2-Phe628) (MW=41,737), which is a truncated form of full-length human aggrecanase-2 that was expressed in CHO cells and purified prior to use. The final concentration of Agg2-Phe628 was 0.5 μg/ml. The buffer used in this assay was 50 mM HEPES, pH 7.5, 100 mM NaCl, 5 mM CaCl2, 0.1% CHAPS, 5% glycerol. The substrate used in the assay was a synthetic peptide having the sequence ABz-[sequence]-Dap(Dnp)-KK—NH2 (>95% pure by HPLC, AnaSpec, Inc.), wherein Abz refers to ortho-aminobenzyl, a fluorescent group which is quenched by energy transfer to a 2,4-dinitrophenyl group. The final concentration of substrate in the assay was 25 μM and was spectrophotometrically determined using the extinction coefficient at 354 nm of 18,172 M^−1cm^−1. The Vmax and Km for this enzyme/substrate reaction were determined to be insensitive to DMSO up to at least 10% (v/v).
The total reaction volume was 100 μl. The buffer and enzyme were added first followed by addition of 10× inhibitor from the dilution plate. Separate enzyme and buffer samples were included in order to obtain the maximal rate of substrate cleavage. The reaction was allowed to stand at 30° C. for 15 minutes, then substrate was added, the resultant solution was mixed. The resultant reaction was allowed to progress, with monitoring, for 40 minutes at 30° C. in kinetic mode using λex: 340 nm and λem: 420 (GeminiXS Molecular Devices).
The fluorescence intensity is linear during the time of data collection. The slope of the line (Vmax/sec) represents the initial reaction rate, ν. The maximal rate of cleavage of substrate was determined in the absence of inhibitor. The percent inhibition of activity in the presence of inhibitor was calculated using the following equation:
% inhibition=(1−ν(RFU/sec))/Maximal Rate(RFU/sec))*100
The IC50 was obtained by fitting the initial rate, ν or % inhibition at each concentration of inhibitor to the following equation:
This model describes a sigmoidal curve with an adjustable baseline, wherein:
y is the % inhibition or initial rate of reaction;
C is the concentration of inhibitor under test;
a is the limiting response as C approaches zero. As C increases without bound y tends toward its lower limit, d;
y is halfway between the lower and upper asymptotes when C=IC50; and
n is the Hill coefficient. The sign of n is positive when the response increases with increasing dose and is negative when the response decreases with increasing dose (inhibition).

Compound	IC50
COc1ccc(C2=NNC3(S2)C(=O)Nc2ccc([N+](=O)[O-])cc23)cc1 (centres unmarked) [Compound 16, 5′-(4-methoxyphenyl)-5-nitro-3′H-spiro[indole-3,2′-[1,3,4]thiadiazol]-2(1H)-one]	4430 nM
Cc1ccc(C2=NNC3(S2)C(=O)N(Cc2ccccc2)c2ccc(C)cc23)cc1 (centres unmarked) [Compound 33, 1-benzyl-5-methyl-5′-(4-methylphenyl)-3′H-spiro[indole-3,2′-[1,3,4]thiadiazol]-2(1H)-one]	612 nM
CN1C(=O)C2(NN=C(c3ccccc3)S2)c2ccccc21 (centres unmarked) [Compound 52, 1-methyl-5′-phenyl-3′H-spiro[indoline-3,2′-[1,3,4]thiadiazol]-2-one]	24100 nM
COc1ccc(C2=NNC3(S2)C(=O)Nc2ccc(OC)cc23)cc1 (centres unmarked) [Compound 6, 5-methoxy-5′-(4-methoxyphenyl)-3′H-spiro[indole-3,2′-[1,3,4]thiadiazol]-2(1H)-one]	> 2500 nM
CC(C)N1C(=O)C2(NN=C(c3ccccc3)S2)c2ccccc21 (centres unmarked) [Compound 42, 1-isopropyl-5′-phenyl-3′H-spiro[indole-3,2′-[1,3,4]thiadiazol]-2(1H)-one]	3050 nM
C=CCN1C(=O)C2(NN=C(c3ccccc3)S2)c2ccccc21 (centres unmarked) [Compound 41, 1-allyl-5′-phenyl-3′H-spiro[indole-3,2′-[1,3,4]thiadiazol]-2(1H)-one]	4880 nM
COc1ccc(C2=NNC3(S2)C(=O)N(c2ccc(Cl)c(Cl)c2)c2ccc(C)cc23)cc1 (centres unmarked) [Compound 26, 1-(3,4-dichlorophenyl)-5′-(4-methoxyphenyl)-5-methyl-3′H-spiro[indole-3,2′-[1,3,4]thiadiazol]-2(1H)-one]	1260 nM
O=C1Nc2cc(F)c(F)cc2C12NN=C(c1ccccc1)S2 (centres unmarked) [Compound 39, 5,6-difluoro-5′-phenyl-3′H-spiro[indole-3,2′-[1,3,4]thiadiazol]-2(1H)-one]	14300 nM
C#CCN1C(=O)C2(NN=C(c3ccc(OC)cc3)S2)c2ccccc21 (centres unmarked) [Compound 7, 5′-(4-methoxyphenyl)-1-prop-2-yn-1-yl-3′H-spiro[indole-3,2′-[1,3,4]thiadiazol]-2(1H)-one]	2470 nM
O=C1Nc2ccc(OC(F)(F)F)cc2C12NN=C(c1ccccc1)S2 (centres unmarked) [Compound 31, 5′-phenyl-5-(trifluoromethoxy)-3′H-spiro[indole-3,2′-[1,3,4]thiadiazol]-2(1H)-one]	7220 nM
CCCC(=O)N1C(=O)C2(NN=C(c3ccc(OC)cc3)S2)c2cc(CC)ccc21 (centres unmarked) [Compound 46, 1-butyryl-5-ethyl-5′-(4-methoxyphenyl)-3′H-spiro[indole-3,2′-[1,3,4]thiadiazol]-2(1H)-one]	1520 nM
O=C1N(c2ccccc2)c2ccccc2C12NN=C(c1ccccc1)S2 (centres unmarked) [Compound 38, 1,5′-diphenyl-3′H-spiro[indole-3,2′-[1,3,4]thiadiazol]-2(1H)-one]	2620 nM
O=C1Nc2ccccc2C12NN=C(c1ccccc1)S2 (centres unmarked) [Compound 53, 5′-phenyl-3′H-spiro[indoline-3,2′-[1,3,4]thiadiazol]-2-one]	30000 nM
COc1ccc(C2=NNC3(S2)C(=O)Nc2cc(C)ccc23)cc1 (centres unmarked) [Compound 19, 5′-(4-methoxyphenyl)-6-methyl-3′H-spiro[indole-3,2′-[1,3,4]thiadiazol]-2(1H)-one]	1400 nM
CCc1ccc2c(c1)C1(NN=C(c3ccc(C(C)(C)C)cc3)S1)C(=O)N2 (centres unmarked) [Compound 44, 5′-(4-tert-butylphenyl)-5-ethyl-3′H-spiro[indole-3,2′-[1,3,4]thiadiazol]-2(1H)-one]	1660 nM
ethyl [5′-(4-methoxyphenyl)-2-oxo-3′H-spiro[indole-3,2′-[1,3,4]thiadiazol]-1(2H)-yl]acetate [Compound 9]	3680 nM
Cc1ccc2c(c1)C1(NN=C(c3ccccc3)S1)C(=O)N2 (centres unmarked) [Compound 55, 5-methyl-5′-phenyl-3′H-spiro[indoline-3,2′-[1,3,4]thiadiazol]-2-one]	11100 nM

Compound	IC50
COc1ccc(C2=NNC3(S2)C(=O)Nc2c(C)cc(C)cc23)cc1 (centres unmarked) [Compound 1, 5′-(4-methoxyphenyl)-5,7-dimethyl-3′H-spiro[indole-3,2′-[1,3,4]thiadiazol]-2(1H)-one]	3060 nM
Cc1cc(C)c2c(c1)C1(NN=C(c3ccccc3)S1)C(=O)N2 (centres unmarked) [Compound 34, 5,7-dimethyl-5′-phenyl-3′H-spiro[indole-3,2′-[1,3,4]thiadiazol]-2(1H)-one]	4670 nM
COc1ccc(C2=NNC3(S2)C(=O)Nc2ccc(Br)cc23)cc1 (centres unmarked) [Compound 4, 5-bromo-5′-(4-methoxyphenyl)-3′H-spiro[indole-3,2′-[1,3,4]thiadiazol]-2(1H)-one]	2410 nM
COc1ccc(C2=NNC3(S2)C(=O)Nc2cc(Cl)ccc23)cc1 (centres unmarked) [Compound 12, 6-chloro-5′-(4-methoxyphenyl)-3′H-spiro[indole-3,2′-[1,3,4]thiadiazol]-2(1H)-one]	1190 nM
COc1ccc(C2=NNC3(S2)C(=O)Nc2ccc(C)cc23)cc1 (centres unmarked) [Compound 5, 5′-(4-methoxyphenyl)-5-methyl-3′H-spiro[indole-3,2′-[1,3,4]thiadiazol]-2(1H)-one]	2530 nM
CCCC(=O)N1C(=O)C2(NN=C(c3ccc(C)cc3)S2)c2cc(CC)ccc21 (centres unmarked) [Compound 45, 1-butyryl-5-ethyl-5′-(4-methylphenyl)-3′H-spiro[indole-3,2′-[1,3,4]thiadiazol]-2(1H)-one]	1450 nM
CCCc1ccc2c(c1)N(Cc1ccccc1)C(=O)C21NN=C(c2ccc(OC)cc2)S1 (centres unmarked) [Compound 28, 1-benzyl-5′-(4-methoxyphenyl)-6-propyl-3′H-spiro[indole-3,2′-[1,3,4]thiadiazol]-2(1H)-one]	950 nM
CCc1ccc2c(c1)C1(NN=C(c3ccc(F)cc3)S1)C(=O)N2 (centres unmarked) [Compound 43, 5-ethyl-5′-(4-fluorophenyl)-3′H-spiro[indole-3,2′-[1,3,4]thiadiazol]-2(1H)-one]	2960 nM
COc1ccc(C2=NNC3(S2)C(=O)Nc2c3ccc(C)c2OC)cc1 (centres unmarked) [Compound 20, 7-methoxy-5′-(4-methoxyphenyl)-6-methyl-3′H-spiro[indole-3,2′-[1,3,4]thiadiazol]-2(1H)-one]	5920 nM
COc1ccc(C2=NNC3(S2)C(=O)N(c2ccccc2C)c2ccc(C)cc23)cc1 (centres unmarked) [Compound 23, 5′-(4-methoxyphenyl)-5-methyl-1-(2-methylphenyl)-3′H-spiro[indole-3,2′-[1,3,4]thiadiazol]-2(1H)-one]	899 nM
COc1ccc(C2=NNC3(S2)C(=O)N(C)c2ccccc23)cc1 (centres unmarked) [Compound 2, 5′-(4-methoxyphenyl)-1-methyl-3′H-spiro[indole-3,2′-[1,3,4]thiadiazol]-2(1H)-one]	> 7000 nM
CCCc1ccc2c(c1)NC(=O)C21NN=C(c2ccc(C)cc2)S1 (centres unmarked) [Compound 37, 5′-(4-methylphenyl)-6-propyl-3′H-spiro[indole-3,2′-[1,3,4]thiadiazol]-2(1H)-one]	1400 nM
5′-(4-methoxyphenyl)-1-[3-(trifluoromethyl)phenyl]-3′H-spiro[indole-3,2′-[1,3,4]thiadiazol]-2(1H)-one [Compound 8]	1180 nM
COc1ccc(C2=NNC3(S2)C(=O)N(c2ccc(Cl)cc2)c2ccc(C)cc23)cc1 (centres unmarked) [Compound 25, 1-(4-chlorophenyl)-5′-(4-methoxyphenyl)-5-methyl-3′H-spiro[indole-3,2′-[1,3,4]thiadiazol]-2(1H)-one]	1480 nM
5-chloro-5′-(4-methoxyphenyl)-3′H-spiro[indole-3,2′-[1,3,4]thiadiazol]-2(1H)-one [Compound 13]	1960 nM
COc1ccc(C2=NNC3(S2)C(=O)Nc2c(C)cccc23)cc1 (centres unmarked) [Compound 18, 5′-(4-methoxyphenyl)-7-methyl-3′H-spiro[indole-3,2′-[1,3,4]thiadiazol]-2(1H)-one]	3750 nM
CCc1ccc2c(c1)C1(NN=C(c3cccc(OC)c3)S1)C(=O)N2 (centres unmarked) [Compound 30, 5-ethyl-5′-(3-methoxyphenyl)-3′H-spiro[indole-3,2′-[1,3,4]thiadiazol]-2(1H)-one]	5930 nM

Same assay, conditions: inhibitor concentration not given

Compound	% Inhibition
CCc1ccc2c(c1)C1(NN=C(c3ccccc3)S1)C(=O)N2 (centres unmarked) [Compound 47, 5-ethyl-5′-phenyl-3′H-spiro[indole-3,2′-[1,3,4]thiadiazol]-2(1H)-one]	9.6%
COc1ccc2c(c1)C1(NN=C(c3ccccc3)S1)C(=O)N2 (centres unmarked) [Compound 35, 5-methoxy-5′-phenyl-3′H-spiro[indole-3,2′-[1,3,4]thiadiazol]-2(1H)-one]	41%
1-(4-chlorobenzoyl)-5′-(4-methoxyphenyl)-3′H-spiro[indole-3,2′-[1,3,4]thiadiazol]-2(1H)-one [Compound 36]	48%
O=C1Nc2c(Cl)ccc(Cl)c2C12NN=C(c1ccccc1)S2 (centres unmarked) [Compound 40, 4,7-dichloro-5′-phenyl-3′H-spiro[indole-3,2′-[1,3,4]thiadiazol]-2(1H)-one]	39%
COc1ccc(C2=NNC3(S2)C(=O)Nc2cccc(N4CCN(Cc5ccccc5)CC4)c23)cc1 (centres unmarked) [Compound 14, 4-(4-benzylpiperazin-1-yl)-5′-(4-methoxyphenyl)-3′H-spiro[indole-3,2′-[1,3,4]thiadiazol]-2(1H)-one]	50%
COc1ccc(C2=NNC3(S2)C(=O)N(c2ccc(C)cc2)c2ccc(C)cc23)cc1 (centres unmarked) [Compound 24, 5′-(4-methoxyphenyl)-5-methyl-1-(4-methylphenyl)-3′H-spiro[indole-3,2′-[1,3,4]thiadiazol]-2(1H)-one]	39%
Cc1ccc(C2=NNC3(S2)C(=O)Nc2ccccc23)cc1 (centres unmarked) [Compound 50, 5′-(4-methylphenyl)-3′H-spiro[indole-3,2′-[1,3,4]thiadiazol]-2(1H)-one]	3.7%
